Measured values: patent US20260231994A1, “TASTE-ENHANCING COMPOSITION, METHOD FOR PRODUCING SAME, FOOD PRODUCT, AND METHOD FOR ENHANCING TASTE OF FOOD PRODUCT” (HOUSE FOODS GROUP INC., priority 2023, published 2026)

Tests used:
Assay type in all cases: in vivo
[1] = Experiment 6 sensory evaluation of cyclic dipeptides, “boosting of last flavor (aftertaste)”
Method: (§1) An aqueous solution in which the concentration of each of the cyclic dipeptides shown in the table described below is set to be the same as its concentration in the heat-treated coriander prepared in 1.1. described above, as estimated from the ratio of the peak area of the cyclic dipeptides to the peak area of the internal standard (47 μg/g of L-lysine-^13C6 monohydrochloride) (hereinafter referred to as “heat-treated coriander equivalent aqueous solution”) was prepared. An aqueous solution in which the concentration of each of the cyclic dipeptides is set to be the same as its concentration in the heat-treated paprika of Example 203 prepared in 2.1 described above (hereinafter referred to as “heat-treated paprika equivalent aqueous solution”) was also prepared. Cyclic dipeptides prepared by the applicant were used in this experiment. As a cyclic dipeptide comprising Leu/Ile, a mixture comprising equal parts of cyclic dipeptide comprising Leu and cyclic dipeptide comprising Ile was used.
(§2) Common and reduced-sodium curry rouxes were prepared according to the procedures described in (1) and (2) of 1.3. described above.
(§3) Two dispersions of 44 g of the aforesaid reduced-sodium curry roux dispersed in 300 g of hot water were prepared. To one of them was added the heat-treated coriander equivalent solution or heat-treated paprika equivalent aqueous solution of the individual cyclic dipeptides shown in the table described below so as to be in the final concentration of 0.5% (w/w) or 1.0% (w/w), respectively.
(§4) Forty-four grams of the aforesaid common curry roux was dispersed in 300 g of hot water.
(§5) The dispersion of reduced-sodium curry roux dispersed in hot water and the dispersion of common curry roux dispersed in hot water were used as comparative controls, and the strength of the flavor was evaluated by three evaluators on the basis of the following evaluation criteria from the viewpoint of “top sharp saltiness”, “middle fullness (enhanced thickness) and “boosting of last flavor (aftertaste).”
(§6) The average of the evaluated scores was defined as “F” when it was 1.0 or lower, “C” when it was 1.1 or higher and 1.9 or lower, “B” when it was 2.0 or higher and 2.5 or lower, “A” when it was 2.6 or higher and 2.9 or lower, and “AA” when it was 3.0 or higher.
(§7) In the table described below, “ID” refers to the compound ID described above. The items of “coriander 0.5%” and “coriander 1.0%” refer to the addition of the aforesaid heat-treated coriander equivalent aqueous solution of cyclic dipeptide so that the final concentrations may be 0.5% (w/w) and 1.0% (w/w), respectively. The items of “paprika 0.5%” and “paprika 1.0%” refer to the addition of the aforesaid heat-treated paprika equivalent aqueous solution of cyclic dipeptide so that the final concentration may be 0.5% (w/w) and 1.0% (w/w), respectively.

[2] = Experiment 6 sensory evaluation of cyclic dipeptides, “top sharp saltiness”
Method: as §1, §2, §3, §4, §5, §6, §7

[3] = Experiment 6 sensory evaluation of cyclic dipeptides, “middle fullness (enhanced thickness)”
Method: as §1, §2, §3, §4, §5, §6, §7

[4] = Additive amount coriander 0.5%, reduced-sodium curry roux
[5] = heat-treated coriander equivalent aqueous solution of cyclic dipeptide, final 1.0% (w/w) in reduced-sodium curry roux dispersion
[6] = heat-treated coriander equivalent aqueous solution of cyclic dipeptide, final 1.0% (w/w) in reduced-sodium curry roux dispersion, 3 evaluators
[7] = Additive amount coriander 0.5% (heat-treated coriander equivalent aqueous solution, final 0.5% (w/w)), reduced-sodium curry roux
[8] = Additive amount paprika 0.5%, reduced-sodium curry roux
[9] = heat-treated paprika equivalent aqueous solution of cyclic dipeptide, final 1.0% (w/w) in reduced-sodium curry roux dispersion
[10] = heat-treated paprika equivalent aqueous solution of cyclic dipeptide, final 1.0% (w/w) in reduced-sodium curry roux dispersion, 3 evaluators
[11] = Additive amount paprika 0.5% (heat-treated paprika equivalent aqueous solution, final 0.5% (w/w)), reduced-sodium curry roux

Row | Substance | Bosting of last flavor Average [1, 4] | Bosting of last flavor Evaluation [1, 4] | Bosting of last flavor Evaluation [1, 5] | Bosting of last flavor Average [1, 6] | Top sharp saltiness Average [2, 7] | Top sharp saltiness Evaluation [2, 4] | Top sharp saltiness Evaluation [2, 5] | Top sharp saltiness Average [2, 6] | Middle fullness Average [3, 4] | Middle fullness Evaluation [3, 4] | Middle fullness Evaluation [3, 5] | Middle fullness Average [3, 6] | Bosting of last flavor Average [1, 8] | Bosting of last flavor Evaluation [1, 8] | Bosting of last flavor Evaluation [1, 9] | Bosting of last flavor Average [1, 10] | Top sharp saltiness Average [2, 11] | Top sharp saltiness Evaluation [2, 8] | Top sharp saltiness Evaluation [2, 9] | Top sharp saltiness Average [2, 10] | other results
1 | cyclic (Gly-Ala) [Coriander ID 57] | 2.3 points | B (“B” when it was 2.0 or higher and 2.5 or lower) | A (“A” when it was 2.6 or higher and 2.9 or lower) | 2.7 points | 2.0 points | B (“B” when it was 2.0 or higher and 2.5 or lower) | B (“B” when it was 2.0 or higher and 2.5 or lower) | 2.2 points | 2.0 points | B (“B” when it was 2.0 or higher and 2.5 or lower) | B (“B” when it was 2.0 or higher and 2.5 or lower) | 2.5 points | – | – | – | – | – | – | – | – | –
2 | cyclic (Ala-Arg) [Coriander ID 11] | 1.8 points | B (“B” when it was 2.0 or higher and 2.5 or lower) | A (“A” when it was 2.6 or higher and 2.9 or lower) | 2.7 points | 2.0 points | B (“B” when it was 2.0 or higher and 2.5 or lower) | B (“B” when it was 2.0 or higher and 2.5 or lower) | 2.2 points | 1.8 points | C (“C” when it was 1.1 or higher and 1.9 or lower) | B (“B” when it was 2.0 or higher and 2.5 or lower) | 2.7 points | – | – | – | – | – | – | – | – | –
3 | cyclic (Ala-Tyr) [Coriander ID 26] | 2.2 points | B (“B” when it was 2.0 or higher and 2.5 or lower) | B (“B” when it was 2.0 or higher and 2.5 or lower) | 2.3 points | 2.2 points | B (“B” when it was 2.0 or higher and 2.5 or lower) | C (“C” when it was 1.1 or higher and 1.9 or lower) | 1.3 points | 2.3 points | B (“B” when it was 2.0 or higher and 2.5 or lower) | B (“B” when it was 2.0 or higher and 2.5 or lower) | 2.2 points | – | – | – | – | – | – | – | – | –
4 | cyclic (Glu-Glu) | – | – | – | – | – | – | – | – | – | – | – | – | 2.5 points | B (“B” when it was 2.0 or higher and 2.5 or lower) | B (“B” when it was 2.0 or higher and 2.5 or lower) | 2.2 points | 2.0 points | B (“B” when it was 2.0 or higher and 2.5 or lower) | B (“B” when it was 2.0 or higher and 2.5 or lower) | 2.2 points | Middle fullness Average [3, 8]: 2.3 points; Middle fullness Evaluation [3, 8]: B (“B” when it was 2.0 or higher and 2.5 or lower); Middle fullness Evaluation [3, 9]: B (“B” when it was 2.0 or higher and 2.5 or lower); Middle fullness Average [3, 10]: 2.5 points
5 | cyclic (Pro-Asp) [Coriander ID 16] | – | – | – | – | – | – | – | – | – | – | – | – | 2.2 points | B (“B” when it was 2.0 or higher and 2.5 or lower) | C (“C” when it was 1.1 or higher and 1.9 or lower) | 1.8 points | 1.8 points | C (“C” when it was 1.1 or higher and 1.9 or lower) | C (“C” when it was 1.1 or higher and 1.9 or lower) | 1.8 points | Middle fullness Average [3, 8]: 2.0 points; Middle fullness Evaluation [3, 8]: B (“B” when it was 2.0 or higher and 2.5 or lower); Middle fullness Evaluation [3, 9]: B (“B” when it was 2.0 or higher and 2.5 or lower); Middle fullness Average [3, 10]: 2.0 points
6 | cyclic (Phe-Ser) | – | – | – | – | – | – | – | – | – | – | – | – | 3.0 points | AA (“AA” when it was 3.0 or higher) | B (“B” when it was 2.0 or higher and 2.5 or lower) | 2.3 points | 2.3 points | B (“B” when it was 2.0 or higher and 2.5 or lower) | B (“B” when it was 2.0 or higher and 2.5 or lower) | 2.2 points | Middle fullness Average [3, 8]: 2.8 points; Middle fullness Evaluation [3, 8]: A (“A” when it was 2.6 or higher and 2.9 or lower); Middle fullness Evaluation [3, 9]: B (“B” when it was 2.0 or higher and 2.5 or lower); Middle fullness Average [3, 10]: 2.3 points
7 | cyclic (Ala-Asn) [Coriander ID 56] | 2.3 points | B (“B” when it was 2.0 or higher and 2.5 or lower) | B (“B” when it was 2.0 or higher and 2.5 or lower) | 2.5 points | 2.3 points | B (“B” when it was 2.0 or higher and 2.5 or lower) | B (“B” when it was 2.0 or higher and 2.5 or lower) | 2.0 points | 2.3 points | B (“B” when it was 2.0 or higher and 2.5 or lower) | A (“A” when it was 2.6 or higher and 2.9 or lower) | 2.7 points | – | – | – | – | – | – | – | – | –
8 | cyclic (Pro-Glu) [Coriander ID 48] | 1.8 points | C (“C” when it was 1.1 or higher and 1.9 or lower) | B (“B” when it was 2.0 or higher and 2.5 or lower) | 2.3 points | 1.7 points | C (“C” when it was 1.1 or higher and 1.9 or lower) | B (“B” when it was 2.0 or higher and 2.5 or lower) | 2.0 points | 1.7 points | C (“C” when it was 1.1 or higher and 1.9 or lower) | B (“B” when it was 2.0 or higher and 2.5 or lower) | 2.3 points | – | – | – | – | – | – | – | – | –
9 | cyclic (Pro-Tyr) [Coriander ID 31] | 2.5 points | B (“B” when it was 2.0 or higher and 2.5 or lower) | B (“B” when it was 2.0 or higher and 2.5 or lower) | 2.0 points | 2.5 points | B (“B” when it was 2.0 or higher and 2.5 or lower) | B (“B” when it was 2.0 or higher and 2.5 or lower) | 2.0 points | 2.5 points | B (“B” when it was 2.0 or higher and 2.5 or lower) | B (“B” when it was 2.0 or higher and 2.5 or lower) | 2.0 points | – | – | – | – | – | – | – | – | –
10 | cyclic (Glu-Asp) [Coriander ID 12] | – | – | – | – | – | – | – | – | – | – | – | – | 2.3 points | B (“B” when it was 2.0 or higher and 2.5 or lower) | B (“B” when it was 2.0 or higher and 2.5 or lower) | 2.0 points | 1.8 points | C (“C” when it was 1.1 or higher and 1.9 or lower) | C (“C” when it was 1.1 or higher and 1.9 or lower) | 1.5 points | Middle fullness Average [3, 8]: 2.7 points; Middle fullness Evaluation [3, 8]: A (“A” when it was 2.6 or higher and 2.9 or lower); Middle fullness Evaluation [3, 9]: B (“B” when it was 2.0 or higher and 2.5 or lower); Middle fullness Average [3, 10]: 2.0 points
